Key:
HEp-2 cells [1] = assay: Competitive inhibition of HEp-2 cell attachment to (SPKR)4inv coated wells; assay type: cell-based, human; details: wells coated with (SPKR)4inv
Protocol: (§1) Cells were harvested with trypsin-EDTA and resuspended in medium containing soybean trypsin inhibitor. After centrifugation, the cell pellet was resuspended in medium containing 20 mM HEPES pH 7.5, 4 g/l BSA. For inhibition studies, 3×10^4 cells were incubated with increasing concentrations of SPKR4-inv protein for 30 min at 22° C.

HEp-2 cells [2] = assay: Competitive inhibition of HEp-2 cell attachment to fibronectin coated wells; assay type: cell-based, human
Protocol: as §1

Row | Substance | ID30 (concentration of competitor that results in 30% inhibition of cell attachment) (HEp-2 cells [1]) [µM] | ID30 compared with (SPKR)4inv (HEp-2 cells [2]; fibronectin coated wells) | ID30 (concentration of competitor that results in 30% inhibition of cell attachment) (HEp-2 cells [2]; wells coated with fibronectin) [µM]
1 | RGDS | 170 | three orders of magnitude higher | 170
2 | A3β1: Recombinant soluble α3β1 integrin (Eble, 1998) | 0.050 | – | –

— patent US20040019188A1, “Targeting through integrins” (priority 2000, published 2004)
